# Results as given in patent publication US20200171056A1, “SULFONYLUREA COMPOUNDS IN THE TREATMENT OF DISEASE ASSOCIATED WITH UV-INDUCED DAMAGE” (CeMM - Forschungszentrum für Molekulare Medizin GmbH, priority 2017, published 2020).
# System: CPDs in XPA^Δ/Δ cells
# Experiment: Immunofluorescence for cyclobutane pyrimidine dimers
# Assay type: cell-based, human
# Details: 0.5 mM for 6 hours
# Method: A. Dose-response curve of WT and ΔXPA cells treated with or without 0.5 mM acetohexamide for 6 hours, followed by illudin S treatment. Survival was assessed after 3 days using CellTiter-Glo. B. Colony formation of WT fibroblasts (BJ) and XPA-patient derived fibroblasts (XPA^Δ/Δ) treated with or without 0.5 mM acetohexamide for 6 hours, followed by UV irradiation (as indicated) and then kept in culture for 10 days. C. WT BJ and XPA^Δ/Δ fibroblastoid cells were treated with 0.5 mM acetohexamide for 6 hours, irradiated with 15 J/M^2 and then fixed and immunostained with an anti-cyclobutane pyrimidine dimer (CPD) antibody at the indicated times. Nuclear DNA was counterstained with DAPI. Scale bar, 10 μm. D. Scatter plot displaying the quantification of CPD intensities per nucleus of WT and XPA^Δ/Δ cells in the presence or absence of 0.5 mM acetohexamide, of more than 100 cells. Red lines within each column represent median intensities. A.u.=arbitrary unit.
# For measurement of cyclobutane pyrimidine dimers (CPDs), cells were seeded onto coverslips (VWR) in 5 cm dishes. On the following day, cells were treated as indicated. Next, they were washed twice with PBS and fixed with 4% paraformaldehyde (PFA) for 10 minutes at room temperature (RT), then permeabilized with 0.5% Triton X-100 in PBS for 5 minntes at RT. […] Quantification was performed using CellProfiler.
smiles,measurement,setting,value
CC(=O)c1ccc(S(=O)(=O)NC(=O)NC2CCCCC2)cc1 [acetohexamide],initial amount of CPDs,15 J/M^2 (FIG. 2C-D),did not affect the initial amount of CPDs
same,clearance of CPDs,"XPA^Δ/Δ cells, 15 J/M^2, 24 hours post UV (FIG. 2C-D)",led to the clearance of CPDs in XPA^Δ/Δ cells
